Measurements reported in patent publication US5591714A, “Derivatives of A82846” (priority 1994, dated 1997).
In brackets after ≈: the same amount, converted by molar mass.

Experiments:
[1] = system: vancomycin-susceptible (Vanco^s) E. faecium and E. faecalis; assay: Susceptibility of vancomycin-susceptible enterococci, agar-dilution MIC; assay type: cell-based; conditions: n = 34 strains; end points read after 24-hour incubation
Protocol: (§1) End points were read after 24-hour incubation. The ratio was calculated by dividing the mean MIC of the compound against the vancomycin-resistant strains by the mean MIC of the compound against the vancomycin-susceptible strains.

[2] = system: Enterococcus faecium X66; assay: MIC, standard agar-dilution assay; assay type: cell-based
Protocol: (§2) The formula I compounds have in vitro and in vivo activity against Gram-positive pathogenic bacteria. The MIC's were determined using a standard agar-dilution assays.
^b Formerly Streptococcus faecium X66

[3] = system: Streptococcus pyogenes; assay: In vivo activity, experimentally infected mice (ED50); conditions: Streptococcus pyogenes infection; doses administered subcutaneously to mice 1 and 4 hours postinfection
[4] = system: vancomycin-resistant (Vanco^r) E. faecium and E. faecalis; assay: Susceptibility of vancomycin-resistant enterococci, agar-dilution MIC; assay type: cell-based; conditions: for Geometric Mean MIC, Vanco^r Strains: n = 25 strains, end points read after 24-hour incubation
Protocol: as §1

[5] = system: Enterococcus faecalis 2041; assay: MIC, standard agar-dilution assay; assay type: cell-based
Protocol: as §2
^c Formerly Streptococcus faecalis 2041

[6] = system: Streptococcus pneumoniae; assay: In vivo activity, experimentally infected mice (ED50); conditions: Streptococcus pneumoniae infection; doses administered subcutaneously to mice 1 and 4 hours postinfection
[7] = system: Staphylococcus aureus; assay: as above; conditions: Staphylococcus aureus infection; doses administered subcutaneously to mice 1 and 4 hours postinfection
[8] = system: Klebsiella pneumoniae X68; assay: MIC, standard agar-dilution assay; assay type: cell-based
Protocol: as §2

[9] = system: Escherichia coli TEM; assay: MIC, standard agar-dilution assay; assay type: cell-based
Protocol: as §2

[10] = system: Haemophilus influenzae C.L.; assay: MIC, standard agar-dilution assay; assay type: cell-based
Protocol: as §2

[11] = system: Staphylococcus epidermidis 222; assay: MIC, standard agar-dilution assay; assay type: cell-based
Protocol: as §2

[12] = system: Escherichia coli EC14; assay: MIC, standard agar-dilution assay; assay type: cell-based
Protocol: as §2

[13] = system: Staphylococcus aureus NRRL X1.1; assay: MIC, standard agar-dilution assay; assay type: cell-based
Protocol: as §2

[14] = system: Streptococcus pyogenes C203; assay: MIC, standard agar-dilution assay; assay type: cell-based
Protocol: as §2

[15] = system: Klebsiella pneumoniae X26; assay: MIC, standard agar-dilution assay; assay type: cell-based
Protocol: as §2

[16] = system: Escherichia coli N10; assay: MIC, standard agar-dilution assay; assay type: cell-based
Protocol: as §2

[17] = system: Klebsiella pneumoniae KAE; assay: MIC, standard agar-dilution assay; assay type: cell-based
Protocol: as §2

[18] = system: Staphylococcus epidermidis EPI270; assay: MIC, standard agar-dilution assay; assay type: cell-based
Protocol: as §2

[19] = system: Staphylococcus aureus V41; assay: MIC, standard agar-dilution assay; assay type: cell-based
Protocol: as §2

[20] = system: Haemophilus influenzae 76; assay: MIC, standard agar-dilution assay; assay type: cell-based
Protocol: as §2

[21] = system: Staphylococcus aureus X400; assay: MIC, standard agar-dilution assay; assay type: cell-based
Protocol: as §2

[22] = system: six vancomycin-susceptible strains of staphylococci and enterococci; assay: Effect of human serum on the MIC, serial dilution assay; assay type: cell-based
Text: Another important property of the formula I compounds is the low binding of the compounds to serum proteins when compared with other glycopeptide antibiotics. […] The ratio of the MIC measured in the presence of added serum to the MIC measured in the absence of added serum ("ratio") is an indication of the degree of serum binding. […] A ratio that is greater than one, for example about ten, indicates the compound has a high degree of serum binding.

[23] = system: Staphylococcus aureus S13E; assay type: cell-based
Protocol: as §2

[24] = system: Streptococcus pneumoniae Park 1; assay type: cell-based
Protocol: as §2

| SMILES | Geometric Mean MIC, Vanco^s Strains [1] | MIC [2] | ED50 [3] | Ratio (mean MIC vancomycin-resistant strains / mean MIC vancomycin-susceptible strains) [4] | Geometric Mean MIC, Vanco^r Strains [4] | MIC [5] | ED50 [6] | ED50 [7] | MIC [8] | MIC [9] | MIC [10] | MIC [11] | MIC [12] | MIC [13] | MIC [14] | MIC [15] | MIC [16] | MIC [17] | MIC [18] | MIC [19] | further results |
| --- | --- | --- | --- | --- | --- | --- | --- | --- | --- | --- | --- | --- | --- | --- | --- | --- | --- | --- | --- | --- | --- |
| CCCCCCCCN[C@@]1(C)C[C@H](O[C@H]2[C@H](Oc3c4cc5cc3Oc3ccc(cc3Cl)[C@@H](O[C@H]3C[C@](C)(N)[C@@H](O)[C@H](C)O3)[C@@H]3NC(=O)[C@H](NC(=O)[C@@H]5NC(=O)[C@H](CC(N)=O)NC(=O)[C@H](NC(=O)[C@@H](CC(C)C)NC)[C@H](O)c5ccc(c(Cl)c5)O4)c4ccc(O)c(c4)-c4c(O)cc(O)cc4[C@@H](C(=O)O)NC3=O)O[C@H](CO)[C@@H](O)[C@@H]2O)O[C@@H](C)[C@@H]1O [Compound 38] | 0.73 µg/mL | .25 µg/mL (≈ 0.147 µM) | 0.11 mg/kg/2 | 2.9 | 2.1 µg/mL | .25 µg/mL (≈ 0.147 µM) | 0.062 mg/kg/2 | 0.43 mg/kg/2 | > 128 µg/mL | > 128 µg/mL | > 128 µg/mL | .5 µg/mL (≈ 0.293 µM) | > 128 µg/mL | .5 µg/mL (≈ 0.293 µM) | .06 µg/mL (≈ 0.0352 µM) | > 128 µg/mL | > 128 µg/mL | > 128 µg/mL | 1 µg/mL (≈ 0.587 µM) | 1 µg/mL (≈ 0.587 µM) | MIC [20]: > 128 µg/mL; MIC [21]: 1 µg/mL (≈ 0.587 µM); MIC determined in absence of added serum ([22]; absence (-) of human serum): 0.75; ratio of the MIC in the presence of added serum to the MIC in the absence of added serum ([22]; indication of the degree of serum binding): 0.58; MIC determined in presence of human serum ([22]; presence (+) of human serum, broth supplemented with human serum to 40%): 0.43; MIC [23]: .5 µg/mL (≈ 0.293 µM); MIC [24]: .25 µg/mL (≈ 0.147 µM) |
| CN[C@H](CC(C)C)C(=O)N[C@H]1C(=O)N[C@@H](CC(N)=O)C(=O)N[C@H]2C(=O)N[C@H]3C(=O)N[C@H](C(=O)N[C@H](C(=O)O)c4cc(O)cc(O)c4-c4cc3ccc4O)[C@H](O[C@H]3C[C@](C)(N)[C@@H](O)[C@H](C)O3)c3ccc(c(Cl)c3)Oc3cc2cc(c3O[C@@H]2O[C@H](CO)[C@@H](O)[C@H](O)[C@H]2O[C@H]2C[C@](C)(NCCc3ccccc3)[C@@H](O)[C@H](C)O2)Oc2ccc(cc2Cl)[C@H]1O [Compound 43] | 0.77 µg/mL | 1 µg/mL (≈ 0.589 µM) | 0.38 mg/kg/2 | 5.2 | 4.0 µg/mL | .5 µg/mL (≈ 0.295 µM) | 0.11 mg/kg/2 | 0.125 mg/kg/2 | > 128 µg/mL | > 128 µg/mL | > 128 µg/mL | .25 µg/mL (≈ 0.147 µM) | > 128 µg/mL | .25 µg/mL (≈ 0.147 µM) | .5 µg/mL (≈ 0.295 µM) | > 128 µg/mL | > 128 µg/mL | > 128 µg/mL | 1 µg/mL (≈ 0.589 µM) | .5 µg/mL (≈ 0.295 µM) | MIC [20]: > 128 µg/mL; MIC [21]: 1 µg/mL (≈ 0.589 µM); MIC [23]: 1 µg/mL (≈ 0.589 µM); MIC [24]: .125 µg/mL (≈ 0.0737 µM) |
| CNC(CC(C)C)C(=O)NC1C(=O)NC(CC(N)=O)C(=O)NC2C(=O)NC3C(=O)NC(C(=O)NC(C(=O)O)c4cc(O)cc(O)c4-c4cc3ccc4O)C(OC3CC(C)(N)C(O)C(C)O3)c3ccc(c(Cl)c3)Oc3cc2cc(c3OC2OC(CO)C(O)C(O)C2OC2CC(C)(NCC(c3ccccc3)c3ccccc3)C(O)C(C)O2)Oc2ccc(cc2Cl)C1O (stereo not drawn) [Compound 45] | 1.7 µg/mL | .5 µg/mL (≈ 0.282 µM) | 0.1 mg/kg/2 | 5.5 | 9.4 µg/mL | .5 µg/mL (≈ 0.282 µM) | 0.1 mg/kg/2 | 0.77 mg/kg/2 | > 128 µg/mL | > 128 µg/mL | > 128 µg/mL | .5 µg/mL (≈ 0.282 µM) | > 128 µg/mL | .25 µg/mL (≈ 0.141 µM) | .125 µg/mL (≈ 0.0705 µM) | > 128 µg/mL | > 128 µg/mL | > 128 µg/mL | 1 µg/mL (≈ 0.564 µM) | .5 µg/mL (≈ 0.282 µM) | MIC [20]: > 128 µg/mL; MIC [21]: .5 µg/mL (≈ 0.282 µM); MIC [23]: .5 µg/mL (≈ 0.282 µM); MIC [24]: .25 µg/mL (≈ 0.141 µM) |
